{"source": "patent US10285969B2", "about": "“Mangiferin-6-O-berberine salt and preparation method and use thereof” (CHANGZHOU DEZE MEDICAL SCIENCE CO., LTD, priority 2015, dated 2019)", "key": {"[1]": {"test_system": "AMPK", "experiment": "Activation of AMPK in L6 cells (Western blot of phospho-AMPK and phospho-ACC)", "format": "cell-based, rat", "details": "1.25-5 μmol/L, 3 hours, dose-dependent", "procedure": "The mangiferin-6-O-berberine salt dihydrate yielded using the method as disclosed in the above examples dissolves in DMSO. Before use, the mangiferin-6-O-berberine salt dihydrate is diluted by a culture medium or HBS. The ultimate concentration of DMSO is no more than 0.2%.\nThe rat L6 cell line is purchased from the ATCC. HG-DMEM is purchased GIBCO™. Fetal bovine serum (FBS) is purchased from Hyclone. Anti-AMPK, anti-ACC, antiphospho-AMPK (Thr172), antiphospho-ACC (ser79) polyclonal antibodies are purchased from Cell Signal Technology.\nL6 cells were grown in HG-DMEM containing 10% (v/v) FBS, 100 U/ml penicillin and 100 U/ml streptomycin in a humidified atmosphere of 5% CO2 at 37° C. When the cells covered 60%, the medium was switched to HG-DMEM with 2% FBS and the culture medium was replaced every two days until the cells differentiation reached 90%.\nCells in 6-well plates were starved in serum-free HG-DMEM, and then different concentration gradient samples were added into serum-free HG-DMEM; the concentration of DMSO is 0.2%. The samples incubated for 3 hours in the cells. […]\nSamples were electrophoresed on 10% SDS-polyacrylamide gels, and transferred to […] membranes under 100V and 1-2 hours in the transmembrane instrument. Protein in the gel was transferred to nitrocellulose membrane under the state of half dry, and the band was determined by Ponceau S (Ponceau S). […]"}, "[2]": {"experiment": "Physical and chemical properties: solubility in solvents", "format": "physicochemical", "excerpt": "The chemical structure of the mangiferin-6-O-berberine salt is as follows: […]"}, "[3]": {"experiment": "Pharmacokinetic comparison after single intragastric administration to SD rats", "format": "in vivo", "procedure": "(§1) Sample A: Mangiferin-6-O-berberine salt dihydrate\nSample B: Mangiferin-berberine salt yielded using the method disclosed in WO2010/145192A1.\nA single intragastric administration of sample of A or B was given to SD rats at the dosage of 100 mg/kg and blood was sampled from jugular vein at 0, 0.083, 0.25, 0.5, 1, 1.5, 2, 3, 4, 5, 6, 7, 8, 12 and 24 h.\nPreparation of the mangiferin reference solution: Mangiferin reference was weighed accurately and put into a 25 ml volumetric flask; methanol was added to make mangiferin dissolve, diluted to graduation. The mangiferin reference mother liquor is yielded for reserve. An appropriate amount of mangiferin reference mother liquor was taken out accurately and diluted to prepare the mangiferin reference solutions having a concentration of 2, 5, 10, 50, 100, 200 ng/ml.\nPreparation of the berberine hydrochloride reference solution: The berberine hydrochloride reference was weighed accurately and put into a 25 ml volumetric flask; methanol was added to make the berberine hydrochloride dissolve, and dilute to graduation. The berberine hydrochloride reference mother liquor was yielded for reserve. An appropriate amount of berberine hydrochloride reference mother liquor was taken out accurately and diluted to prepare reference solution whose berberine concentration is 0.2, 0.5, 2, 10, 20, 50 ng/ml.\nPreparation of the internal standard solution: Glibenclamide was weighed accurately and put into a 25 ml volumetric flask; acetonitrile was added to make glibenclamide dissolve, and dilute to graduation. The internal standard solution of glibenclamide was yielded, having a concentration of 50 ng/ml.\nBlood sample processing method: Rat blood was put in a heparin anticoagulant centrifuge tube and centrifuged for 10 minutes at 6000 rpm, and the plasma was taken for reserve at −20° C. […]\nThe pharmacokinetic parameters are calculated with a non compartmental model in Pharsight Phoenix 6.3."}, "[4]": {"test_system": "non-alcoholic fatty liver combined with type 2 diabetes mellitus", "experiment": "Improvement of metabolic disorder indices in patients, oral tablets for six months", "format": "in vivo, human", "details": "after six months, tablets 75 mg two times per day oral", "procedure": "The patients according to the criteria of diagnosing non-alcoholic fatty liver combined with type 2 diabetes mellitus oral administrated mangiferin-6-O-berberine salt tablets 75 mg (for the preparation method, reference may be made to Example 6) two times per day."}, "[5]": {"experiment": "Solubility in the hydrochloric acid solution of pH 1", "format": "physicochemical", "procedure": "as §1\n(§2) Sample B: Mangiferin-berberine salt yielded using the method as disclosed in WO2010/145192A1.\n2. Instrument: PHS-3C pH meter (Shanghai Kangyi)\nTake pure water; add hydrochloric acid to adjust pH to 1 (25° C.±2° C.). Take the water 50 ml to different triangular flask; weigh up accurately 200 mg sample A and sample B which have been ground into powders and put them into the triangular flasks separately, shake and observe dissolved phenomena.\nTake the water 50 ml to different triangular flasks; weigh up accurately sample A 400 mg and 600 mg which have been ground into powders and put the powders into the triangular flasks separately, shake and observe dissolving phenomena."}, "[6]": {"experiment": "Stability under a high-humidity environment (moisture absorption weight gain)", "format": "physicochemical", "procedure": "as §1, §2\n2. Instrument: One ten-thousandth electronic balance (Sartorius, Germany)\nWeigh up accurately appropriate amount sample A in 3 glass gardens and sample B in 3 glass gardens separately; put the samples in a drug stability chamber with the condition being set to: 25° C./90% RH±5% RH and storage for 10 days. Weigh the samples accurately on the fifth day and tenth day; record the results of weighing and calculate weight percentage of moisture absorption."}, "[7]": {"details": "single intragastric 100 mg/kg, 0-24 h, n = 3, mean ± SD"}, "[8]": {"details": "hydrochloric acid solution of pH 1"}}, "data": [{"smiles": "COc1ccc2cc3[n+](cc2c1OC)CCc1cc2c(cc1-3)OCO2.O=c1c2cc(O)c([O-])cc2oc2cc(O)c([C@@H]3O[C@H](CO)[C@@H](O)[C@H](O)[C@H]3O)c(O)c12", "note": "[Mangiferin-6-O-berberine salt]", "values": [{"measurement": "phosphorylation of ACC", "setting": "[1]", "value": "enhances significantly"}, {"measurement": "phosphorylation of AMPK", "setting": "[1]", "value": "enhances significantly"}, {"measurement": "solubility in dilute hydrochloric acid", "setting": "[2]; dilute hydrochloric acid", "value": "slightly soluble"}, {"measurement": "solubility in methanol", "setting": "[2]; methanol", "value": "slightly soluble"}, {"measurement": "solubility in water", "setting": "[2]; water", "value": "almost insoluble"}, {"measurement": "AUC relative to that of the mangiferin-berberine salt", "setting": "[3]; oral administration 100 mg/kg", "value": 2, "unit": "times"}, {"measurement": "AUC0-t of Berberine in plasma", "setting": "[3]; [7]", "value": "669.72 ± 312.83", "unit": "ng·h/mL"}, {"measurement": "AUC0-t of Mangiferin in plasma", "setting": "[3]; [7]", "value": "1831.11 ± 510.25", "unit": "ng·h/mL"}, {"measurement": "ALT", "setting": "[4]; n = 8, mean ± SD, base line 136.50", "value": 51.85, "unit": "U/L"}, {"measurement": "APRI index", "setting": "[4]; n = 8, base line 0.447", "value": 0.203}, {"measurement": "Urine microalbumin (1^+ is seen as 1)", "setting": "[4]; n = 8, base line 0.60", "value": 0}, {"measurement": "TG", "setting": "[4]; n = 8, base line 3.56", "value": 1.41, "unit": "mmol/L"}, {"measurement": "Atherogenic index (AI)", "setting": "[4]; n = 8, base line 4.12", "value": 3.10}, {"measurement": "HbA1C", "setting": "[4]; n = 8, base line 7.18", "value": 5.80, "unit": "%"}, {"measurement": "Weight", "setting": "[4]; n = 8, base line 73.35", "value": 62.34, "unit": "kg"}, {"measurement": "AST", "setting": "[4]; n = 8, base line 83.32", "value": 39.20, "unit": "U/L"}, {"measurement": "Diastolic pressure", "setting": "[4]; n = 8, base line 94.79", "value": 76.39, "unit": "mmHg"}, {"measurement": "Systolic pressure", "setting": "[4]; n = 8, base line 153.77", "value": 125.86, "unit": "mmHg"}, {"measurement": "INS", "setting": "[4]; n = 8, base line 197.99", "value": 56.08, "unit": "pmol/L"}, {"measurement": "Liver color Doppler ultrasound", "setting": "[4]; n = 8, base line fatty liver", "value": "normal"}, {"measurement": "ISI", "setting": "[4]; n = 8, base line −7.12", "value": "−5.80"}, {"measurement": "solubility relative to the mangiferin-berberine salt disclosed in WO2010/145192A1", "setting": "[5]; [8]", "value": "three times"}, {"measurement": "stability (of the solution) compared with the mangiferin-berberine salt disclosed in WO2010/145192A1", "setting": "[5]; [8]", "value": "much better"}, {"measurement": "solubility in the hydrochloric acid solution of pH 1", "setting": "[5]; pH 1, 25° C.±2° C.", "value": 12, "unit": "mg/ml"}, {"measurement": "weight percentage of moisture absorption (hygroscopicity) compared with the mangiferin-berberine salt disclosed in WO2010/145192A1", "setting": "[6]", "value": "much smaller"}]}]}
